Data as given in patent EP3325465B1, “PESTICIDALLY ACTIVE PYRAZOLE DERIVATIVES” (Syngenta Participations AG, priority 2015, dated 2017).
Read-outs that look alike come from different tables or passages of the source.

Key:
Format in all cases: in vivo
[1] = system: Diabrotica balteata, (Corn root worm); test: Diabrotica balteata maize sprout spray test, L2 larvae; settings: 96 h
Text: (§1) The pesticidal/insecticidal properties of the compounds according to embodiments 1 or 2 can be illustrated via the following tests: Spodoptera littoralis (Egyptian cotton leaf worm) • Cotton leaf discs were placed onto agar in 24-well microtiter plates and sprayed with aqueous test solutions prepared from 10'000 ppm DMSO stock solutions. After drying the leaf discs were infested with five L1 larvae. […] Plutella xylostella (Diamond back moth): 24-well microtiter plates with artificial diet were treated with aqueous test solutions prepared from 10'000 ppm DMSO stock solutions by pipetting. After drying, the plates were infested with L2 larvae (10 to 15 per well). The samples were assessed for mortality and growth inhibition in comparison to untreated samples 5 days after infestation. […] Diabrotica balteata, (Corn root worm) • Maize sprouts placed onto an agar layer in 24-well microtiter plates were treated with aqueous test solutions prepared from 10'000 ppm DMSO stock solutions by spraying. After drying, the plates were infested with L2 larvae (6 to 10 per well). […] Thrips tabaci (Onion thrips): Sunflower leaf discs were placed on agar in 24-well microtiter plates and sprayed with aqueous test solutions prepared from 10'000 ppm DMSO stock solutions. After drying the leaf discs were infested with a thrips population of mixed ages. The samples were assessed for mortality 6 days after infestation. […] Tetranychus urticae (Two-spotted spider mite): Bean leaf discs on agar in 24-well microtiter plates were sprayed with aqueous test solutions prepared from 10'000 ppm DMSO stock solutions. After drying the leaf discs were infested with a mite population of mixed ages. The samples were assessed for mortality on mixed population (mobile stages) 8 days after infestation. […] Euschistus heros (Neotropical Brown Stink Bug): • Two weeks old soybean plants were sprayed in a turn table spray chamber with the diluted spray solutions. After drying 2 soybean seeds were added and plants were infested with 10 N2 nymphs of the neotropical brown stink bug Euschistus heros in plastic test boxes. The samples were assessed for mortality in comparison to untreated samples 5 days after infestation. • The following compounds gave at least 80% mortality of Euschistus heros at an application rate of 12.5 ppm: Compounds 3 , 4 , 8 , 39 , 43 , 44 , 46 , 75 , 76 , 77 , 78 , 79 , 80 , 81 , 82 , 88 , 90 , 93 and 95 . Myzus persicae (Green peach aphid): Sunflower leaf discs were placed on agar in a 24-well microtiter plate and sprayed with test solutions at an application rate of 200 ppm. After drying, the leaf discs were infested with an aphid population of mixed ages. After an incubation period of 6 DAT, samples were checked for mortality. The following compounds gave at least 50% mortality of Myzus persicae: Compounds 3 , 4 , 8 , 43 , 44 , 75 , 76 , 77 , 80 , 81 , 90 and 92 . Myzus persicae (Green peach aphid): • Test compounds were applied by pipette into 24 well plates and mixed with Sucrose solution. Application rate: 12.5ppm. The plates were closed with a stretched parafilm. A plastic stencil with 24 holes is placed onto the plate and infested pea seedlings were placed directly on the Parafilm. The infested plate is closed with a gel blotting paper and another plastic stencil and then turned upside down. […]

[2] = system: Thrips tabaci (Onion thrips); test: Thrips tabaci sunflower leaf disc spray test; settings: foliar, 144 h, application rate of 200 ppm, mortality 6 days after infestation, mixed ages
Text: as §1

[3] = system: Plutella xylostella (Diamond back moth); test: Plutella xylostella artificial diet test, L2 larvae; settings: 120 h, application rate of 200 ppm, mortality and growth inhibition 5 days after infestation
Text: as §1

[4] = system: Spodoptera littoralis (Egyptian cotton leaf worm); test: Spodoptera littoralis cotton leaf disc spray test, L1 larvae; settings: foliar, 72 h
Text: as §1

[5] = system: Myzus persicae (Green peach aphid); test: Myzus persicae sucrose solution / Parafilm feeding test; settings: 120 h, read-out: mortality of Myzus persicae
Text: as §1

[6] = system: Tetranychus urticae (Two-spotted spider mite); test: Tetranychus urticae bean leaf disc spray test; settings: foliar, 192 h, application rate of 200 ppm, mortality on mixed population (mobile stages) 8 days after infestation
Text: as §1

[7] = system: Euschistus heros (Neotropical Brown Stink Bug); test: Euschistus heros soybean plant spray test, N2 nymphs; settings: 120 h, application rate of 12.5 ppm, 5 days after infestation, N2 nymphs, read-out: mortality of Euschistus heros
Text: as §1

[8] = application rate of 200 ppm, 4 days after infestation, L2 larvae, read-out: mortality
[9] = application rate of 200 ppm, 3 days after infestation, L1 larvae, read-out: mortality
[10] = Application rate: 12.5ppm, sucrose solution, 5 days after infestation

Cn1nc(C(F)(F)C(F)(F)F)c(C(F)(F)F)c1-c1noc(-c2ccc(Cl)c(C(=O)NC3(C#N)CC3)c2)n1 [Compound 10, 2-Chloro-N-(1-cyanocyclopropyl)-5-[3-[2-methyl-5-(1,1,2,2,2-pentafluoroethyl)-4-(trifluoromethyl)pyrazol-3-yl]-1,2,4-oxadiazol-5-yl]benzamide]
≥ 80%: mortality at 200 ppm [1] | pest or weed control at 200 ppm [2] | pest or weed control at 200 ppm [3] | mortality at 200 ppm [4] | mortality at 12.5 ppm [5]

Cn1cc(-c2c(C(F)(F)F)c(C(F)(F)C(F)(F)F)nn2C)nc1-c1ccc(Cl)c(C(=O)NC2CC2)c1 [Compound 29, 2-chloro-N-cyclopropyl-5-[1-methyl-4-[2-methyl-5-(1,1,2,2,2-pentafluoroethyl)-4-(trifluoromethyl)pyrazol-3-yl]imidazol-2-yl]benzamide]
≥ 80%: mortality at 200 ppm [1, 8] | pest or weed control at 200 ppm [6] | pest or weed control at 200 ppm [3] | mortality at 200 ppm [4, 9] | mortality at 12.5 ppm [5, 10]

Cn1nc(C(F)(F)C(F)(F)F)c(C(F)(F)F)c1-c1cnn(-c2ccc(Cl)c(C(=O)NC3(C#N)CC3)c2)c1 [Compound 38, 2-chloro-N-(1-cyanocyclopropyl)-5-[4-[2-methyl-5-(1,1,2,2,2-pentafluoroethyl)-4-(trifluoromethyl)pyrazol-3-yl]pyrazol-1 - yl]benzamide]
≥ 80%: mortality at 12.5 ppm [5, 10]

Cn1nc(C(F)(F)C(F)(F)F)c(C(F)(F)F)c1-c1cc(-c2ccc(Cl)c(C(=O)NC3(C#N)CC3)c2)ns1 [Compound 46, 2-chloro-N-(1-cyanocyclopropyl)-5-[5-[2-methyl-5-(1,1,2,2,2-pentafluoroethyl)-4-(trifluoromethyl)pyrazol-3-yl]isothiazol-3-yl]benzamide]
≥ 80%: mortality at 12.5 ppm [7] | mortality at 200 ppm [4, 9]

Cn1nc(C(F)(F)C(F)(F)F)c(C(F)(F)F)c1-c1cc(-c2ccc(Cl)c(C(=O)NC3(C#N)CC3)c2)[nH]n1 [Compound 72, 2-chloro-N-(1-cyanocyclopropyl)-5-[3-[2-methyl-5-(1,1,2,2,2-pentafluoroethyl)-4-(trifluoromethyl)pyrazol-3-yl]-1H-pyrazol-5-yl]benzamide]
≥ 80%: mortality at 200 ppm [1, 8] | pest or weed control at 200 ppm [3] | mortality at 200 ppm [4, 9] | mortality at 12.5 ppm [5, 10]

Cn1nc(C(F)(F)C(F)(F)F)c(C(F)(F)F)c1-c1cc(-c2ccc(Cl)c(C(=O)NC3CCOC3=O)c2)on1 (stereo not shown) [Compound 78, 2-chloro-5-[3-[2-methyl-5-(1,1,2,2,2-pentafluoroethyl)-4-(trifluoromethyl)pyrazol-3-yl]isoxazol-5-yl]-N-(2-oxotetrahydrofuran-3-yl)benzamide]
≥ 80%: mortality at 12.5 ppm [7] | mortality at 200 ppm [1, 8] | pest or weed control at 200 ppm [2] | pest or weed control at 200 ppm [6] | mortality at 200 ppm [4, 9]

C#CCNC(=O)c1cc(-c2cc(-c3c(C(F)(F)F)c(C(F)(F)C(F)(F)F)nn3C)no2)ccc1Cl [Compound 79, 2-chloro-5-[3-[2-methyl-5-(1,1,2,2,2-pentafluoroethyl)-4-(trifluoromethyl)pyrazol-3-yl]isoxazol-5-yl]-N-prop-2-ynyl-benzamide]
≥ 80%: mortality at 12.5 ppm [7] | mortality at 200 ppm [1, 8] | pest or weed control at 200 ppm [2] | pest or weed control at 200 ppm [6] | pest or weed control at 200 ppm [3] | mortality at 200 ppm [4, 9]

C=C(Cl)CNC(=O)c1cc(-c2cc(-c3c(C(F)(F)F)c(C(F)(F)C(F)(F)F)nn3C)no2)ccc1Cl [Compound 82, 2-chloro-N-(2-chloroallyl)-5-[3-[2-methyl-5-(1,1,2,2,2-pentafluoroethyl)-4-(trifluoromethyl)pyrazol-3-yl]isoxazol-5-yl]benzamide]
≥ 80%: mortality at 12.5 ppm [7] | mortality at 200 ppm [1, 8] | pest or weed control at 200 ppm [2] | pest or weed control at 200 ppm [3] | mortality at 200 ppm [4, 9]

Cn1nc(C(F)(F)C(F)(F)F)c(C(F)(F)F)c1-c1cc(-c2ccc(Cl)c(C(=O)NC3(C(F)(F)F)CC3)c2)on1 [Compound 88, 2-chloro-5-[3-[2-methyl-5-(1,1,2,2,2-pentafluoroethyl)-4-(trifluoromethyl)pyrazol-3-yl]isoxazol-5-yl]-N-[1-(trifluoromethyl)cyclopropyl]benzamide]
≥ 80%: mortality at 12.5 ppm [7] | mortality at 200 ppm [1, 8] | pest or weed control at 200 ppm [2] | pest or weed control at 200 ppm [3] | mortality at 200 ppm [4, 9]

Cn1nc(C(F)(F)C(F)(F)F)c(C(F)(F)F)c1-c1cc(-c2ccc(Cl)c(C(=O)Nc3ccncc3)c2)on1 [Compound 89, 2-chloro-5-[3-[2-methyl-5-(1,1,2,2,2-pentafluoroethyl)-4-(trifluoromethyl)pyrazol-3-yl]isoxazol-5-yl]-N-(4-pyridyl)benzamide]
≥ 80%: mortality at 200 ppm [1, 8] | pest or weed control at 200 ppm [2] | pest or weed control at 200 ppm [6] | pest or weed control at 200 ppm [3] | mortality at 200 ppm [4, 9]

Cn1nc(C(F)(F)C(F)(F)F)c(C(F)(F)F)c1-c1cc(-c2ccc(Cl)c(C(N)=O)c2)on1 [Compound 94, 2-chloro-5-[3-[2-methyl-5-(1,1,2,2,2-pentafluoroethyl)-4-(trifluoromethyl)pyrazol-3-yl]isoxazol-5-yl]benzamide]
≥ 80%: mortality at 200 ppm [1, 8] | pest or weed control at 200 ppm [2] | pest or weed control at 200 ppm [6] | pest or weed control at 200 ppm [3] | mortality at 200 ppm [4, 9]

Cn1nc(C(F)(F)C(F)(F)F)c(C(F)(F)F)c1-c1cc(-c2ccc(Cl)c(C(=O)NC3(c4ccccn4)CC3)c2)on1 [Compound 95, 2-chloro-5-[3-[2-methyl-5-(1,1,2,2,2-pentafluoroethyl)-4-(trifluoromethyl)pyrazol-3-yl]isoxazol-5-yl]-N-[1-(2-pyridyl)cyclopropyl]benzamide]
≥ 80%: mortality at 12.5 ppm [7] | mortality at 200 ppm [1, 8] | pest or weed control at 200 ppm [2] | pest or weed control at 200 ppm [3] | mortality at 200 ppm [4, 9]

Cn1nc(C(F)(F)C(F)(F)F)c(C(F)(F)F)c1-c1cc(-c2ccc(Cl)c(C(=O)NCC(F)(F)F)c2)on1 [Compound 96, 2-chloro-5-[3-[2-methyl-5-(1,1,2,2,2-pentafluoroethyl)-4-(trifluoromethyl)pyrazol-3-yl]isoxazol-5-yl]-N-(2,2,2-trifluoroethyl)benzamide]
≥ 80%: mortality at 200 ppm [1, 8] | pest or weed control at 200 ppm [2] | pest or weed control at 200 ppm [3] | mortality at 200 ppm [4, 9] | mortality at 12.5 ppm [5, 10]

Cn1nc(C(F)(F)C(F)(F)F)c(C(F)(F)F)c1-c1cc(-c2ccc(Cl)c(C(=O)NCC(F)F)c2)on1 [Compound 97, 2-chloro-N-(2,2-difluoroethyl)-5-[3-[2-methyl-5-(1,1,2,2,2-pentafluoroethyl)-4-(trifluoromethyl)pyrazol-3-yl]isoxazol-5-yl]benzamide]
≥ 80%: mortality at 200 ppm [1, 8] | pest or weed control at 200 ppm [3] | mortality at 200 ppm [4, 9] | mortality at 12.5 ppm [5, 10]

C=C(C)CNC(=O)c1cc(-c2cc(-c3c(C(F)(F)F)c(C(F)(F)C(F)(F)F)nn3C)no2)ccc1Cl [Compound 98, 2-chloro-N-(2-methylallyl)-5-[3-[2-methyl-5-(1,1,2,2,2-pentafluoroethyl)-4-(trifluoromethyl)pyrazol-3-yl]isoxazol-5-yl]benzamide]
≥ 80%: mortality at 200 ppm [1, 8] | pest or weed control at 200 ppm [2] | pest or weed control at 200 ppm [6] | pest or weed control at 200 ppm [3] | mortality at 200 ppm [4, 9]
